In patent EP1650209A1, “Griseusin derivatives and their use as antitumor agents” (Oncotest GmbH, priority 2004, dated 2006):
Values after ≈ are worked out from the molar mass of the structure shown.

How the values were obtained:
Assay in all cases: Proliferation inhibition of cancer cells (propidium iodide fluorescence)
Type in all cases: cell-based, human
[1] = tested on: MEXF 276L; conditions: Melanoma, MEXF 276L cell line
Method: (§1) Using various human cancer cells in vitro, the concentrations of the test compounds (A, B, C, D, E, F), which inhibit the proliferation of cancer cells by 50% (IC50) and 70% (IC70) were determined. Specifically, each cell line of bladder cancer (BXF 1218L and T-24), glioblastoma (CNXF 498NL), colic cancer (HCT-116 and HT-29), gastric cancer (GXF 251 L), head and neck cancer (HNXF 536L), non small cell lung cancer (LXF 1121L, LXF 289L, LXF 526L, LXF 529L, LXF 629L and H-460), mammary cancer (MAXF 401NL, MCF-7, MDA-231 and MDA-468), melanoma (MEXF 276L, MEXF 394NL, MEXF 462NL, MEXF 514L and MEXF 520L), ovary cancer (OVXF 1619L, OVXF 899L and OVCAR-3), pancreatic cancer (PAXF 1657L and PANC-1), prostate cancer (22Rv1, DU-145, LNCaP and PC3M), pleuramesothelioma (PXF 1752L), renal cancer (RXF 1781 L, RXF 393NL, RXF 486L and RXF 944L), and uterine cancer (UXF 1138L) is added to a 96-well microtiter plate at a density of 3.6-11.2x10^3 cells per well in RPMI-1640 medium containing 10% fetal calf serum and 0.1% gentamicin and incubated for 24 hours. After 24 hours RPMI-1640 medium containing 10% fetal calf serum and 0.1% gentamicin, together with a test compound, is added thereto. Then, this plate is incubated at 37°C for 4 days in a humidified atmosphere of air containing 5% CO2. Thereafter, the cell culture medium with or without drug was replaced by 200 µl of an aqueous PI solution (7 µg/ml propidium iodide). Applying a freeze thaw cycle to permeabilize intact cell walls, staining of DNA was achieved, and the fluorescence of each well was measured using the Cy-tofluor 4000 microplate reader (excitation 530 nm, emission 620 nm), giving a direct relationship to the total cell number. Proliferation inhibition is expressed as test versus untreated control (T/C-value [%]). IC50 and IC70 values were determined by plotting compound concentration versus cell viability.

[2] = tested on: MEXF 462NL; conditions: MEXF 462NL cell line
Method: as §1

[3] = tested on: RXF 486L; conditions: RXF 486L cell line
Method: as §1

[4] = tested on: GXF 251 L
Method: as §1

[5] = tested on: LXFL 529L; conditions: LXFL 529L cell line
Method: as §1

[6] = tested on: HT-29; conditions: Colon, HT-29 cell line
Method: as §1

[7] = tested on: LNCaP; conditions: Prostate, LNCaP cell line
Method: as §1

[8] = tested on: CNXF 498NL; conditions: Glioblastoma, CNXF 498NL cell line
Method: as §1

[9] = tested on: LXFA 526L; conditions: Lung, non small cell, LXFA 526L cell line
Method: as §1

[10] = tested on: MDA-468; conditions: Breast, MDA-468 cell line
Method: as §1

[11] = tested on: 22Rv1; conditions: Prostate, 22Rv1 cell line
Method: as §1

[12] = tested on: PC3M; conditions: Prostate, PC3M cell line
Method: as §1

[13] = tested on: RXF 393NL; conditions: Kidney, RXF 393NL cell line
Method: as §1

[14] = tested on: BXF 1218L; conditions: Bladder, BXF 1218L cell line
Method: as §1

C[C@@H]1CC(=O)[C@@H](O)[C@]2(O1)O[C@@H]1CC(=O)O[C@@H]1C1=C2C(=O)c2c(O)cccc2C1=O [Compound B, 4'-dehydro-deacetylgriseusin A]
IC50 [1]: 0.112 µg/mL (≈ 0.28 µM)
IC70 [1]: 0.212 µg/mL (≈ 0.53 µM)
IC50 value ([2]; 4 days): 0.086 µg/mL (≈ 0.215 µM)
IC50 ([2]; Melanoma): 0.086 µg/mL (≈ 0.215 µM)
IC70 ([2]; Melanoma): 0.158 µg/mL (≈ 0.395 µM)
IC50 ([3]; Kidney): 0.078 µg/mL (≈ 0.195 µM)
IC70 ([3]; Kidney): 0.142 µg/mL (≈ 0.355 µM)
IC50 value ([3]; 4 days): 0.078 µg/mL (≈ 0.195 µM)
IC50 value ([4]; GXF 251L cell line, 4 days): 0.106 µg/mL (≈ 0.265 µM)
IC50 ([4]; Stomach, GXF 251 L cell line): 0.106 µg/mL (≈ 0.265 µM)
IC70 ([4]; Stomach, GXF 251 L cell line): 0.178 µg/mL (≈ 0.445 µM)
IC50 value ([5]; 4 days): 1.068 µg/mL (≈ 2.67 µM)
IC50 ([5]; Lung, non small cell): 1.068 µg/mL (≈ 2.67 µM)
IC70 ([5]; Lung, non small cell): 1.814 µg/mL (≈ 4.53 µM)
IC50 [6]: 0.114 µg/mL (≈ 0.285 µM)
IC70 [6]: 0.177 µg/mL (≈ 0.442 µM)
IC50 [7]: 0.107 µg/mL (≈ 0.267 µM)
IC70 [7]: 0.175 µg/mL (≈ 0.437 µM)
IC50 [8]: 0.107 µg/mL (≈ 0.267 µM)
IC70 [8]: 0.184 µg/mL (≈ 0.46 µM)
IC50 [9]: 0.129 µg/mL (≈ 0.322 µM)
IC70 [9]: 0.206 µg/mL (≈ 0.515 µM)
IC50 [10]: 0.060 µg/mL (≈ 0.15 µM)
IC70 [10]: 0.127 µg/mL (≈ 0.317 µM)
IC50 [11]: 0.071 µg/mL (≈ 0.177 µM)
IC70 [11]: 0.139 µg/mL (≈ 0.347 µM)
IC50 [12]: 0.402 µg/mL (≈ 1 µM)
IC70 [12]: 0.929 µg/mL (≈ 2.32 µM)
IC50 [13]: 0.104 µg/mL (≈ 0.26 µM)
IC70 [13]: 0.164 µg/mL (≈ 0.41 µM)
IC50 [14]: 0.056 µg/mL (≈ 0.14 µM)
IC70 [14]: 0.133 µg/mL (≈ 0.332 µM)
